Structures are written as SMILES.

The values below come from patent US20260034135A1, “USE OF N6-BENZYLAMINOPURINE AS AN APPETITE SUPPRESSANT” (THE GOVERNING COUNCIL OF THE UNIVERSITY OF TORONTO, priority 2022, published 2026).

Common to all, as to type: cell-based, mouse
The test system of one test is mHypoE-44 cell line. Put plainly: Gene expression by qRT-PCR in mHypoE-44 hypothalamic cell line. The note with it: 16 hr. As for the experimental part: (§1) Hypothalamic neurons from embryonic and adult mice were previously immortalized to generate the clonal cell lines mHypoE-46, mHypoE-44, mHypoE-41, mHypoE-38, mHypoA-59, a FAC-sorted POMC/GFP mouse-derived cell line, mHypoA-POMC/GFP-2, and a mixed culture mHypoA-Bmal1-WT/F cell line (6, 13, 14). The mHypoE-46, mHypoE-44, and mHypoA-Bmal1-WT/F lines were cultured in DMEM containing 1000 mg/L glucose supplemented with 5% FBS and 1% pen/strep. The mHypoE-41, mHypoE-38, and mHypoA-59 cell lines were cultured in DMEM containing 4500 mg/L glucose supplemented with 2% FBS and 1% pen/strep. The mHypoA-POMC/GFP-2 line was cultured in DMEM containing 1000 mg/L glucose supplemented with 2% FBS and 1% pen/strep. All cells were maintained in 5% CO2 at 37° C. BAP was initially dissolved in DMSO solvent (vehicle control) to achieve 1000x the intended dose. The BAP solution was then diluted 1:1000 with the growth media used for the cell line. For co-treatment experiments, the vehicle control for ATP, UDP, and PKI was water, and for the H89 PKA inhibitor was DMSO. Neuropeptide gene expression levels were determined by qRT-PCR.
(§2) For cell culture experiments, total RNA was isolated using PureLink RNA isolation kit (Thermofisher Scientific, Burlington, ON, Canada) according to the manufacturer's instruction with on column DNase step (PureLink DNAse kit) or DNase I treatment to remove genomic DNA. For mouse experiments, total RNA was isolated using mirVana PARIS RNA and native protein isolation kit (Thermofisher Scientific). RNA quality and quantity were measured using Nanodrop 2000 and 500-1000 ng of complimentary DNA (cDNA) was synthesized with High Capacity cDNA Reverse Transcription kit (Applied biosystems, Thermofisher Scientific). Quantitative reverse transcription polymerase chain reaction (RT-qPCR) was performed with 12.5 ng of cDNA amplified with Platinum SYBR green qPCR SuperMix-UDG with ROX on an Applied Biosystems Prism 7900HT or PowerTrack Green Master Mix on an Applied Biosystems QuantStudio 5 and gene specific primers as per manufacturer's instructions (Table 1). Data was analyzed using […] and normalized to reference gene, either 60S ribosomal protein L7 (Rpl7) or Histone 3a (His).
For orientation: Quantitative PCR measures a nucleic acid by following its amplification.

The subject of another test is mHypoE-46 cell line. Put plainly: Gene expression by qRT-PCR in mHypoE-46 hypothalamic cell line. The note with it: for Npy expression: 16 hr. On the procedure:
as §1, §2

Another test has as its system AMPK. In words: AMPK phosphorylation by Western blot in mHypoE-46. The settings on record: 500 μM AICAR, 15 min, mHypoE-46, positive control. As for the experimental part: mHypoE-46 cells were serum starved in 5.5 mM glucose (LG) DMEM for 1 hour prior to treatment with vehicle (0.1% DMSO), 100 µM BAP or H20, […] 5-Aminoimidazole-4-carboxamide ribonucleotide (AICAR) or 0 mM glucose DMEM. Protein was harvested using 1× cell lysis buffer (Cell Signaling Technologies, Inc, CST) containing protease and phosphatase inhibitors. A total of 30 μg protein was separated on a 12% SDS-polyacrylamide gels and transferred onto PVDF membranes. Membranes were blocked in 5% milk dissolved in Tris-buffered saline with Tween 20 (TBS-T) for 1 h and incubated with primary antibody overnight at 4° C. phospho-AMPKα (Thr172; cat. 2532S, CST), and total AMPKα (cat. 2535S, CST); phospho-p70-S6K (Thr389; cat. 9205S, CST) and total p70-S6K (cat. 9202S, CST); insulin receptor ß (cat. 3025S, CST); phospho-AKT (Ser473; cat. 9271S, CST) and total AKT (cat. 9272S, CST); phospho-ERK1/2 (Thr202/Tyr204; cat. 9101, CST) and total ERK (cat. 4695, CST) were diluted 1:1000 in 5% milk in TBS-T. Membranes were washed and incubated with secondary HRP-linked antirabbit antibody (1:7500 in 5% milk in TBS-T, CST) for 1 h, washed, and imaged using the Signal Fire ECL Reagent (CST) on the iBright 1500 Imaging System (Thermofisher). Protein density was quantified using ImageJ or the iBright Imaging System.
On the technique in general: In western blotting, separated proteins are transferred to a membrane and probed.

A further test concerns mHypoE-41 cell line. In words: Gene expression by qRT-PCR in mHypoE-41 hypothalamic cell line. The settings on record: 100 μM ATP, 16 hr. As for the experimental part:
as §1, §2

A further test deals with mHypoA-59 cell line. In words: Gene expression by qRT-PCR in mHypoA-59 hypothalamic cell line. The note with it: ATP (data not shown). On the procedure:
as §1, §2

Consider `O=c1ccn([C@@H]2O[C@H](COP(=O)(O)OP(=O)(O)OP(=O)(O)O)[C@@H](O)[C@H]2O)c(=O)[nH]1` [UTP, reference compound], for which the “basal Npy expression” value with mHypoE-44 cell line (100 μM UTP, n=2 preliminary) was “may decrease the basal expression of Npy”. For the same molecule, the Npy expression result in the test with mHypoE-46 cell line (100 μM UTP, n=2 preliminary) is recorded as “no effect”.

Take `NC(=O)c1ncn([C@@H]2O[C@H](COP(=O)(O)O)[C@@H](O)[C@H]2O)c1N` [AICAR, 5-Aminoimidazole-4-carboxamide ribonucleotide, reference compound]: the “AMPK phosphorylation (activation) vs vehicle” value in the test with AMPK was “significantly activate AMPK”.

Regarding `Nc1ncnc2c1ncn2[C@@H]1O[C@H](COP(=O)(O)OP(=O)(O)OP(=O)(O)O)[C@@H](O)[C@H]1O` [ATP, reference compound], the Npy expression result in the test on mHypoE-44 cell line (100 μM ATP) is recorded as “induces the expression of Npy”; in the test on mHypoE-46 cell line (100 μM ATP), “induces the expression of Npy”; in the test with mHypoE-41 cell line, “induces the expression of Npy”; with mHypoA-59 cell line, “increased”. The Agrp expression result in the test on mHypoA-59 cell line is “increased”.

As to `O=c1ccn([C@@H]2O[C@H](COP(=O)(O)OP(=O)(O)O)[C@@H](O)[C@H]2O)c(=O)[nH]1` [UDP, reference compound], the Npy expression entry with mHypoE-44 cell line (100 μM UDP) is “unable to affect the expression of Npy”; in the test on mHypoE-46 cell line (100 μM UDP) it was “no effect”.

As for `c1coc(CNc2ncnc3[nH]cnc23)c1` [kinetin], the “repression of Npy transcripts” value with mHypoE-46 cell line (100 μM kinetin, 16 h, n=2 preliminary) is around 50%.
